In US20120220482A1, “COMPOSITIONS AND METHODS FOR SCREENING PEPTOID LIBRARIES” (The Board of Regents of the University of Texas System, priority 2011, published 2012):
pKd: −log10 of the molar value. Square brackets hold non-standard residues; d marks the D form. Peptide text beside a SMILES is read from it. * marks the point of attachment. N(4-Sulfamoylphenethyl)Gly = NS(=O)(=O)c1ccc(CCNCC(=O)O)cc1; Gly(N-piperonyl) = O=C(O)CNCc1ccc2c(c1)OCO2; hSer(lactone) = O=C1OCC[C@@H]1N*; NFurfurylGly = O=C(O)CNCc1ccco1; NAllylGly = C=CCNCC(=O)O

Each compound was assayed on anti-Myc antibody (assay: Microarray hybridization of spotted compounds with anti-Myc antibody). Conditions: fluorescently labeled secondary antibody.
Type: binding
Method: (§1) A total of 16 copies of each array of 100 compounds (the hits and various controls) were spotted onto each microscope slide. Each array, isolated by applying a Whatman Fast Frame to the slide, was then incubated for 2 hr with either anti-Myc antibody or various concentrations of anti-FLAG antibody. After washing, the amount of antibody captured at each spot was quantified by subsequent hybridization with fluorescently labeled secondary antibody, another wash, drying, and scanning. […] No binding of the anti-FLAG antibody to the Myc peptide was observed, nor was binding of the anti-Myc antibody to any of the hits or the FLAG peptide.
Microarray Spotting, Hybridization, and Data Analysis. […]
Dry slides were placed inside the Whatman Fast Frame following the provided instructions, and each of the 16 wells per slide was blocked with 100 μl of StartingBlock (Fisher) for 1 hr at RT with a multichannel pipetteman. […] Gal files were created and used to determine fluorescence intensity of each of the spots with GenePixPro6.0. […] GPR files were created and median fluorescence-background fluorescence values for each of the spots were cut and pasted in Excel and arranged (using simple macros) to simplify transferring results to GraphPad Prism 5.0 software for binding curve analyses.

Compound	binding of anti-Myc antibody to spotted compound
N-Asp-Tyr-Lys-Asp-Asp-Asp-Asp-Lys-C [FLAG peptide]	No binding

Each compound was assayed on anti-FLAG antibody (assay: Competition experiment: anti-FLAG antibody pre-incubated with excess soluble peptide before hybridization to the array). Conditions: antibody first incubated with excess peptide.
Type: binding, mouse
Method: To address if the higher affinity hits bind to anti-FLAG antibody in the antigen-binding site, the inventors carried out a competition experiment in which the anti-FLAG antibody was first incubated with an excess of FLAG peptide or, as a control, the Myc peptide, before hybridization to the array.

Compound	effect of excess soluble peptide on binding of anti-FLAG antibody to the molecules on the microarray
N-Asp-Tyr-Lys-Asp-Asp-Asp-Asp-Lys-C [FLAG peptide]	abrogated binding

These compounds were tested against M2 monoclonal anti-flag antibody (assay: Microarray binding of spotted hits titrated with anti-FLAG antibody). Conditions: apparent KD from microarray binding curves with decreasing anti-FLAG antibody concentrations; NA = spot not bound by anti-FLAG antibody.
Design: species or system mouse
Method: as §1
Microarray Spotting, Hybridization, and Data Analysis. Contents of the 384-well plates were printed onto maleimide-coated glass slides with a NanoPrint LM 360 (TeleChem International Inc., Sunnyvale, Calif.) with MP946 Micro Spotting Pins. A 10% ethanol (EM-AX007309; Midwest Grain Products) and water mixture was used to wash the pins before printing and after spotting of each compound. Multiple wash/sonicate/dry cycles were used between each sample pick-up and print cycle. Spots were printed on the slide to fit within the wells of a 16-well Whatman Fast Frame (Whatman no. 10486003), which allows 16 isolated hybridization events on a single slide. Slides were left in 50% humidity for 12 hr […]. After printing, the humidifier was turned off and the slides were left for at least 12 hr before free maleimide groups were blocked with 2% β-mercaptoethanol in DMF for 1 hr by placing the slides in glass slide holders inside of glass containers on a shaker in the chemical hood. Slides were washed sequentially with DMF for 30 min, tetrahydrofuran for 30 min, DMF for 30 min, acetonitrile thrice for 20 min, isopropanol thrice for 20 min, 13 TBST once for 20 min, then 0.13 TBST once for 20 min. Washed slides were spun dry for 5 min at 2000 rpm.
Dry slides were placed inside the Whatman Fast Frame following the provided instructions, and each of the 16 wells per slide was blocked with 100 μl of StartingBlock (Fisher) for 1 hr at RT with a multichannel pipetteman. Wells were drained and washed once with […] TBST. TBST was drained one well at a time before adding 100 μl of appropriate concentrations of protein(s) diluted in 1:1 TBST:StartingBlock. The FastFrame was placed on wet paper towels inside of a glass cake pan, which was sealed with Glad Press'n Seal and placed on an orbital shaker for 2-4 hr at RT. Each well was washed with TBST six times before adding 4 μg/ml Alexa647 goat anti-mouse IgG secondary antibodies diluted in 1:1 TBST:StartingBlock for 1 hr at RT. Slides were washed five times for 3 min with 13 TBST, then once with 0.13 TBST, spun dry at 2000 rpm, then scanned using a GenePix Autoloader 4200AL Scanner (Molecular Devices, Sunnyvale Calif.). Slides were scanned with a power of 1003 and photomultiplier tube setting of 5003-6003. Gal files were created and used to determine fluorescence intensity of each of the spots with GenePixPro6.0. Gal files were aligned manually, then automatic spotfinding followed by manual correction of spots performed for each of the scanned slides. GPR files were created and median fluorescence-background fluorescence values for each of the spots were cut and pasted in Excel and arranged (using simple macros) to simplify transferring results to GraphPad Prism 5.0 software for binding curve analyses.

Compound	pKd
C[C@@H](NC(=O)[C@@H](Cc1ccc(O)cc1)NC(=O)[C@@H](CCCCN)NC(=O)[C@H](N)CC(N)=O)C(=O)N[C@H](CC(=O)O)C(=O)N[C@H](CC(=O)O)C(=O)N(CC(=O)N[C@H]1CCOC1=O)Cc1ccco1 [Spot A7] (H-[dN][dK][dY][dA][dD][dD][NFurfurylGly]-{hSer(lactone)}; C-terminus assumed)	8.30
C=CCNCC(=O)N[C@@H](C(=O)N[C@H](CCCCN)C(=O)N[C@H](Cc1ccc(O)cc1)C(=O)N[C@H](CC(=O)O)C(=O)N[C@H](CC(=O)O)C(=O)N(CC(=O)N[C@H]1CCOC1=O)Cc1ccco1)[C@H](C)O [Spot B1] (H-[NAllylGly][dT][dK][dY][dD][dD][NFurfurylGly]-{hSer(lactone)})	8.52
N=C(N)NCCC[C@@H](NC(=O)[C@@H](Cc1ccc(O)cc1)NC(=O)[C@@H](CCCCN)NC(=O)[C@H](N)CCC(=O)O)C(=O)N[C@H](Cc1ccc(O)cc1)C(=O)N[C@H](Cc1c[nH]c2ccccc12)C(=O)N(CC(=O)N[C@H]1CCOC1=O)Cc1ccco1 [Spot B4] (H-[dE][dK][dY][dR][dY][dW][NFurfurylGly]-{hSer(lactone)}; C-terminus assumed)	8.15
CC(C)C[C@@H](N)C(=O)N[C@H](CC(=O)O)C(=O)N[C@H](CCCCN)C(=O)N[C@H](Cc1ccc(O)cc1)C(=O)N[C@H](CCC(=O)O)C(=O)N[C@H](Cc1c[nH]c2ccccc12)C(=O)N(CC(=O)N[C@H]1CCOC1=O)Cc1ccco1 [Spot B7] (H-[dL][dD][dK][dY][dE][dW][NFurfurylGly]-{hSer(lactone)}; C-terminus assumed)	8.22
NCCCC[C@@H](NC(=O)[C@H](N)CC(=O)O)C(=O)N[C@H](Cc1ccc(O)cc1)C(=O)N[C@H](Cc1ccccc1)C(=O)N[C@H](CO)C(=O)N(CCc1ccc(S(N)(=O)=O)cc1)CC(=O)N(CC(=O)N[C@H]1CCOC1=O)Cc1ccco1 [Spot B8] (H-[dD][dK][dY][dF][dS][N(4-Sulfamoylphenethyl)Gly][NFurfurylGly]-{hSer(lactone)})	8.05
NCCCC[C@@H](NC(=O)[C@@H](CO)NC(=O)[C@H](N)CCC(=O)O)C(=O)N[C@H](Cc1ccc(O)cc1)C(=O)N[C@H](CC(=O)O)C(=O)N[C@H](Cc1ccc(O)cc1)C(=O)N(CC(=O)N[C@H]1CCOC1=O)Cc1ccco1 [Spot B9] (H-[dE][dS][dK][dY][dD][dY][NFurfurylGly]-{hSer(lactone)}; C-terminus assumed)	8.70
NCCCC[C@@H](N)C(=O)N[C@H](Cc1ccc(O)cc1)C(=O)N[C@H](Cc1ccc(O)cc1)C(=O)N[C@H](CC(N)=O)C(=O)N[C@H](CC(=O)O)C(=O)N(CC(=O)N(CC(=O)N[C@H]1CCOC1=O)Cc1ccco1)Cc1ccc2c(c1)OCO2 [Spot D5] (H-[dK][dY][dY][dN][dD][Gly(N-piperonyl)][NFurfurylGly]-{hSer(lactone)})	8.15
C=CCN(CC(=O)N(CC(=O)N[C@H]1CCOC1=O)Cc1ccco1)C(=O)[C@@H](CC(=O)O)NC(=O)CNC(=O)CN(Cc1ccc2c(c1)OCO2)C(=O)[C@@H](Cc1ccc(O)cc1)NC(=O)[C@H](N)CCCCN [Spot E4] (H-[dK][dY][Gly(N-piperonyl)]G[dD][NAllylGly][NFurfurylGly]-{hSer(lactone)})	8.10
C[C@@H](NC(=O)[C@@H](Cc1ccc(O)cc1)NC(=O)[C@@H](CCCCN)NC(=O)[C@@H](Cc1ccccc1)NC(=O)[C@H](N)CC(=O)O)C(=O)N[C@H](CCC(=O)O)C(=O)N(CC(=O)N[C@H]1CCOC1=O)Cc1ccco1 [Spot E8] (H-[dD][dF][dK][dY][dA][dE][NFurfurylGly]-{hSer(lactone)}; C-terminus assumed)	8.05
NCCCC[C@@H](N)C(=O)N[C@H](Cc1ccc(O)cc1)C(=O)N[C@H](CCC(=O)O)C(=O)N[C@H](Cc1ccc(O)cc1)C(=O)N[C@H](CCC(=O)O)C(=O)N[C@H](Cc1ccc(O)cc1)C(=O)N(CC(=O)N[C@H]1CCOC1=O)Cc1ccco1 [Spot H1] (H-[dK][dY][dE][dY][dE][dY][NFurfurylGly]-{hSer(lactone)}; C-terminus assumed)	8.22
NCCCC[C@@H](N)C(=O)N[C@H](Cc1ccc(O)cc1)C(=O)N[C@H](CC(=O)O)C(=O)N(CCc1ccc(S(N)(=O)=O)cc1)CC(=O)N(CCc1ccc(S(N)(=O)=O)cc1)CC(=O)N[C@H](CC(=O)O)C(=O)N(CC(=O)N[C@H]1CCOC1=O)Cc1ccco1 [Spot H2] (H-[dK][dY][dD][N(4-Sulfamoylphenethyl)Gly][N(4-Sulfamoylphenethyl)Gly][dD][NFurfurylGly]-{hSer(lactone)})	8.30
NCCCC[C@@H](N)C(=O)N[C@H](Cc1ccc(O)cc1)C(=O)N[C@H](CC(=O)O)C(=O)N[C@H](Cc1c[nH]c2ccccc12)C(=O)N[C@H](CCC(=O)O)C(=O)NCC(=O)N(CC(=O)N[C@H]1CCOC1=O)Cc1ccco1 [Spot H6] (H-[dK][dY][dD][dW][dE]G[NFurfurylGly]-{hSer(lactone)}; C-terminus assumed)	7.96
NCCCC[C@@H](N)C(=O)N[C@H](Cc1ccc(O)cc1)C(=O)N[C@H](Cc1ccc(O)cc1)C(=O)N[C@H](CCC(=O)O)C(=O)N[C@H](CC(N)=O)C(=O)N(CC(=O)N(CC(=O)N[C@H]1CCOC1=O)Cc1ccco1)Cc1ccc2c(c1)OCO2 [Spot H7] (H-[dK][dY][dY][dE][dN][Gly(N-piperonyl)][NFurfurylGly]-{hSer(lactone)})	8.05
NCCCC[C@@H](NC(=O)[C@@H](CC(=O)O)NC(=O)[C@H](N)Cc1c[nH]c2ccccc12)C(=O)N[C@H](Cc1ccc(O)cc1)C(=O)N[C@H](Cc1c[nH]cn1)C(=O)N(CCc1ccc(S(N)(=O)=O)cc1)CC(=O)N(CC(=O)N[C@H]1CCOC1=O)Cc1ccco1 [Spot H8] (H-[dW][dD][dK][dY][dH][N(4-Sulfamoylphenethyl)Gly][NFurfurylGly]-{hSer(lactone)})	8.70
C=CCN(CC(=O)N[C@H](CCC(=O)O)C(=O)N[C@H](CC(C)C)C(=O)N(CC(=O)N[C@H]1CCOC1=O)Cc1ccco1)C(=O)[C@@H](CC(=O)O)NC(=O)[C@@H](Cc1ccc(O)cc1)NC(=O)[C@H](N)CCCCN [Spot H9] (H-[dK][dY][dD][NAllylGly][dE][dL][NFurfurylGly]-{hSer(lactone)}; C-terminus assumed)	8.40

Same assay, conditions: microarray, fluorescently labeled secondary antibody

Compound	binding of anti-FLAG antibody to spotted compound
N-Asp-Tyr-Lys-Asp-Asp-Asp-Asp-Lys-C [FLAG peptide]	binds
